Test results: patent US20250235510A1, “COMBINATION THERAPY USING GLUCOSE-DEPENDENT INSULINOTROPIC POLYPEPTIDE RECEPTOR ANTAGONIST COMPOUNDS AND GLP-1 RECEPTOR AGONIST PEPTIDES” (Pfizer Inc., priority 2024, published 2025)
pIC50: −log10 of the molar value.

Target: T1, human Glucose-dependent Insulinotropic Polypeptide Receptor (hGIPR) (Homo sapiens, UniProt P48546)
T1 sequence (P48546 22-466): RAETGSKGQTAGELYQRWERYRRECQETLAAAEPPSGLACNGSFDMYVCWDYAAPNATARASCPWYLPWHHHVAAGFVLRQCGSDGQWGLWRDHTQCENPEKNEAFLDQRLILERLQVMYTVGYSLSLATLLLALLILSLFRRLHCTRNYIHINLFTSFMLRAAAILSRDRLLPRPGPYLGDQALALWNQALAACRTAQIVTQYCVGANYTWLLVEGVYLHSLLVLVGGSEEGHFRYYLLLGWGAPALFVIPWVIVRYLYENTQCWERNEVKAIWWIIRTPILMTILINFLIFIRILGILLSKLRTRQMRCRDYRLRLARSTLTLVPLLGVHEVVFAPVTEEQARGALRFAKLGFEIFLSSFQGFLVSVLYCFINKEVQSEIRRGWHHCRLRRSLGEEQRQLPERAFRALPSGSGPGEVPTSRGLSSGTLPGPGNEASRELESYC
Test: Functional in vitro GIPR antagonist potency assay (intracellular cAMP, HTRF) in CHO-K1 cells stably expressing hGIPR
Format: cell-based
Details: 2 h compound incubation, then hGIP at estimated EC80 for 30 min
Protocol: The functional in vitro antagonist potency for test compounds was determined by monitoring intracellular cyclic adenosine monophosphate (cAMP) levels in Chinese hamster ovary (CHO)-K1 cells stably expressing the human Glucose-dependent Insulinotropic Polypeptide Receptor (hGIPR). Following agonist activation, hGIPR associates with the G-protein complex causing the Gas subunit to exchange bound guanosine diphosphate (GDP) for guanosine triphosphate (GTP), followed by dissociation of the Gas-GTP complex. The activated Gas subunit can couple to downstream effectors to regulate the levels of second messengers or cAMP within the cell. Thereby, determination of intracellular cAMP levels allows for pharmacological characterization. Intracellular cAMP levels are quantitated using a homogenous assay utilizing the Homogeneous Time Resolved Fluorescence (HTRF) technology from Perkin Elmer. […] The two entities compete for binding to a monoclonal anti-cAMP antibody labeled with cryptate. […]
([…]: 5% CO2), with a micro-clime lid. […] ([…]: 5% CO2), after which intracellular cAMP levels were quantified and samples measured as described previously. […]
Data were analyzed using the ratio of fluorescence intensity at 620 and 665 nm for each well, extrapolated from the cAMP standard curve to express data as nanomolar (nM) cAMP for each well. […]

pIC50	SMILES
6.80	CC(C)c1ccc(NC(=O)N2CCC[C@H]2C(=O)Nc2ccc3cc(C(=O)O)ccc3c2)cc1 [Compound 41A, 6-[(1-{[4-(propan-2-yl)phenyl]carbamoyl}prolyl)amino] naphthalene-2-carboxylic acid]
8.17	CC(C)c1ccc(NC(=O)N2CCC[C@H]2C(=O)Nc2ccc(-c3ccc(C(=O)O)cc3)cc2)cc1 [Compound 44A, 4′-[(1-{[4-(propan-2-yl)phenyl]carbamoyl}prolyl)amino][1,1′-biphenyl]-4-carboxylic acid]
